Experimental data from US9012036B2, “Organometallic complex, composition and light emitting element including the organometallic complex” (Semiconductor Energy Laboratory Co., Ltd., priority 2007, dated 2015).

What was measured:
[1] = solubility test in various solvents; assay type: physicochemical; details: for solubility in dimethylformamide (DMF) / solubility x, Solvents not having aromatic ring DMF: solvent DMF; for solubility in chloroform / solubility x, Solvents not having aromatic ring chloroform: solvent chloroform; for solubility in dioxane / solubility x, Ethers dioxane: solvent dioxane; for solubility in toluene / solubility x, sovents having aromatic ring toluene: solvent toluene
Method: In this Example, the solubility of an organometallic complex including a pyrazine skeleton described in Embodiment Mode 1 was measured. The measurement was performed by examining the solubility in various solvents: 2-ethoxyethanol, isopropanol, and ethanol, which are alcohols; dioxane, which is ether; chloroform and dimethylformamide (DMF), which are an organic solvent not including an aromatic ring; and toluene, which is an aromatic hydrocarbon-based solvent.
Among the complexes disclosed in Embodiment Mode 1, [Ir(tppr)2(dpm)] represented by the structural formula (147), which was synthesized in Example 1, is selected as a measurement object. The solubility was investigated. […]

[2] = decomposition temperature by differential thermal balance (TG-DTA); assay type: physicochemical; details: temperature increase rate 10° C./min, normal atmospheric pressure
Method: The decomposition temperature of the obtained organometallic complex of the present invention, [Ir(tppr)2(dpm)], was measured with a high vacuum differential type differential thermal balance (TG-DTA2410SA, manufactured by Bruker AXS K.K.). The temperature increase rate was 10° C./min, and the temperature was increased under normal atmospheric pressure.

In the case of “bis(2,3,5-triphenylpyrazinato)(pivaloyltrifluoroacetonato)iridium(III) [Ir(tppr)2(pFac)]”, the “solubility in dimethylformamide (DMF)” value [1] is reported as ≥ 1200 µg/mL, the “solubility x, Solvents not having aromatic ring DMF” value [1] is reported as “⊚ (x ≧ 1.2)” and the solubility in chloroform [1] is reported as ≥ 1200 µg/mL. For the same substance, the “solubility x, Solvents not having aromatic ring chloroform” value [1] was “⊚ (x ≧ 1.2)”, the solubility in dioxane [1] was ≥ 1200 µg/mL and the “solubility x, Ethers dioxane” value [1] was “⊚ (x ≧ 1.2)”. The solubility in toluene [1] was ≥ 1200 µg/mL and the “solubility x, sovents having aromatic ring toluene” value [1] was “⊚ (x ≧ 1.2)”.

For “bis(2,3,5-triphenylpyrazinato)(dipivaloylmethanato)iridium(III) [Ir(tppr)2(dpm)]”, the “solubility x, Alcohols 2-ethoxyethanol” value ([1]; solvent 2-ethoxyethanol) was “⊚ (x ≧ 1.2)”, the “solubility in dimethylformamide (DMF)” value [1] was ≥ 1200 µg/mL and the “solubility x, Solvents not having aromatic ring DMF” value [1] was “⊚ (x ≧ 1.2)”. For the same substance, the solubility in chloroform [1] was ≥ 1200 µg/mL, the “solubility x, Solvents not having aromatic ring chloroform” value [1] was “⊚ (x ≧ 1.2)” and the solubility in dioxane [1] was ≥ 1200 µg/mL. For the same substance, the “solubility x, Ethers dioxane” value [1] was “⊚ (x ≧ 1.2)”, the solubility in ethanol ([1]; solvent ethanol) was ≥ 600 µg/mL and the “solubility x, Alcohols ethanol” value ([1]; solvent ethanol) was “Δ (0.9 > x ≧ 0.6)”. For the same substance, the solubility in isopropanol ([1]; solvent isopropanol) was ≥ 600 µg/mL, the “solubility x, Alcohols isopropanol” value ([1]; solvent isopropanol) was “Δ (0.9 > x ≧ 0.6)” and the solubility in toluene [1] was ≥ 600 µg/mL. The “solubility x, sovents having aromatic ring toluene” value [1] was “Δ (0.9 > x ≧ 0.6)” and the “decomposition temperature (reduction in weight by 5%)” value [2] was 327 °C.
